Values after ≈ are worked out from the molar mass of the structure shown. Read-outs that look alike come from different tables or passages of the source.
Legend:
[1] = system: HCV replicon cells (genotype 1b); assay: In vitro combination studies (CalcuSyn combination index); format: cell-based, HCV genotype 1b; details: in combination with PGSM; for Combination Index at EC50 / Combination Index at EC75 / Combination Index at EC90: 72 h, CalcuSyn; for Effect of combination: CI < 1 synergistic
Description: HCV Replicon cells were treated with various concentrations of inhibitors in twofold serial dilutions at a final dimethyl sulfoxide concentration of 1% including titrations of each of the compounds alone as reference controls. […] At three days after treatments, intracellular HCV RNA levels were determined by qRT-PCR. For the Loewe additive model, the experimental data were analyzed by using CalcuSyn (Biosoft, Ferguson, Mo.), a computer program based on the method of Chou and Talalay. A combination index (CI) value for each experimental combination was calculated by a quantitative measure of the degree of drug interaction in terms of additive effect (CI = 1), synergism (CI < 1), or antagonism (CI > 1) for a given endpoint of the effect measurement.

[2] = system: JFH1 viruses (HCV genotype 2a) in Huh7 cells; assay: Anti-HCV assay in HCVcc-infected cells (qRT-PCR); format: cell-based; details: Hepatitis C virus, Huh-7, 48 h, read-out: Inhibition of HCV RNA replication (EC50) JHF-1 (genotype 2a)
Description: Infectious JFH1 viruses (HCV genotype 2a) were generated as described previously. Huh7 cells were seeded in 24-well plates at a density of 5 × 10^4 cells per well. At 24 h after plating, cells were infected with JFH1 viruses for 2 h. After incubation, the supernatants were replaced with fresh medium. Increasing concentrations of PGMS and its triterpenoid saponins were added in a medium containing 2% DMSO, and cells were incubated at 37°C. At 48 h after infection, total RNAs were extracted and the HCV RNA levels were quantified by qRT-PCR assay. Anti-HCV activity was determined by HCV RNA levels in compound-treated cells as compared to mock-treated cells.

[3] = molecular target: T1, HCV NS5B polymerase (NS5BCΔ21) (Hepatitis C virus genotype 1b, UniProt Q9WMX2); assay: RdRp assay with recombinant HCV NS5B polymerase; format: biochemical, HCV genotype 1b
T1 construct: HCV NS5B polymerase from HCV genotype 1b carrying an N-terminal GST-tag and C-terminal 21-amino acid truncation (NS5BCΔ21); made in house; host or cells: Escherichia coli
Description: Recombinant HCV NS5B polymerase from HCV genotype 1b carrying an N-terminal GST-tag and C-terminal 21-amino acid truncation (NS5BCΔ21) was expressed in Escherichia coli and purified as previously described with some modifications. The colorimetric reverse transcriptase assay kit (Roche Applied Science) was applied to perform RdRp assay. The inhibition of HCV RdRp activity was determined by the amount of double-stranded RNA synthesized by the recombinant NS5BΔC21 in the presence of various test compounds using HCV 3′-UTR as a template.

[4] = system: HCV subgenomic replicon (genotype 1b) in Huh7 cells; assay: Anti-HCV assay in HCV replicon cells (qRT-PCR); format: cell-based, HCV genotype 1b; details: Hepatitis C virus, Huh-7, 72 h, read-out: Inhibition of HCV RNA replication (EC50) CON1 (genotype 1b)
Description: Huh7 cells harboring HCV subgenomic replicon (genotype 1b) were maintained in the presence of 0.25 mg/mL G418 (Invitrogen, Carlsbad, CA). HCV replicon cells were seeded at a density of 1 × 10^4 cells/well in a 96-well plate and incubated at 37°C and 5% CO2. Following 24 h incubation, the culture medium was replaced with a medium containing serially diluted test compounds in the presence of 2% FBS and 1% DMSO. After cells were treated for 72 h with PGMS and triterpenoid saponins, total RNAs were extracted using a CellAmp Direct RNA Prep Kit (Korea Biomedical, Seoul, Korea). The HCV RNA levels were quantified by a quantitative real-time polymerase chain reaction (qRT-PCR) assay using IQ5 real-time PCR detection system (Bio-Rad, Hercules, CA, USA) with HCV-specific primers (5′-GACACTCCACCATAGATCACTC-3′ and 5′-CCC AAC ACT ACT CGG CTA G-3′) and probe (5′-FAM-CCCAAATCTCCAGGCATTGAGCGG-3′ BHQ-1). Results were normalized to glyceraldehyde-3-phosphate dehydrogenase gene (GAPDH). Anti-HCV activity was determined by HCV RNA levels in compound-treated cells as compared to mock-treated cells.

HCV NS3/4A protease = molecular target: T2, HCV NS3/4A protease (Hepatitis C virus genotype 1b, UniProt Q9WMX2); assay: biochemical; format: biochemical; details: FRET peptide substrate; read-out: HCV enzyme (IC50) HCV NS3/4A
T2 construct: HCV-NS3/4A protease purified from E. coli; host or cells: E. coli
Description: The NS3/4A serine protease assay was performed using a HCV protease assay kit (SensoLyte, AnaSpec, Fremont, CA) according to the manufacturer's instructions. Briefly, HCV-NS3/4A protease purified from E. coli was mixed with the test compound in the assay buffer. After 15 min incubation at room temperature, EDANS/DABCYL-based fluorescence resonance energy transfer (FRET) peptide substrate solution was added and mixed. The FRET substrate was cleaved specifically by HCV NS3/4A protease, thereby liberating the C-terminal peptide-fluorophore fragment from the proximity quenching effect of the dark quencher, resulting in increase of fluorescence. The fluorescence intensity was measured immediately and continuously at excitation/emission at 340 nm and 490 nm.

[5] = Cell viability assay (MTT); format: cell-based; details: human, Huh7 cells, read-out: Cytotoxicity (CC50)
Description: Cell viability was determined by the colorimetric 3-(4,5-dimethylthiazol-2-yl)-2,5-diphenyltetrazolium bromide (MTT) reagent (Promega Corporation) according to the manufacturer's instructions. The absorbance was detected at 570 nm using a Bio-Tek plate reader (Bio-Tek instrument, Weymouth, MA).

[6] = system: Huh7 cells harboring HCV subgenomic replicon (genotype 1b); assay: Colony forming assay; format: cell-based, HCV genotype 1b; details: 5 U/mL of IFN-α alone, three weeks, G418
Description: G418 was included in the media to provide selective pressure on HCV replicon cells. After three weeks of treatment, surviving cells were stained with crystal violet [23].

[7] = system: HCV subgenomic replicon cells (genotype 1b); assay: Anti-HCV assay for 14 days; format: cell-based, HCV genotype 1b
Description: HCV replicon cells were plated at 2 × 10^5 cells per well in a 6-well plate. Each compound was serially diluted in DMEM containing 10% FBS and 0.2% DMSO as reported previously. Culture media were replaced with fresh medium and compounds every 3 days. Cells were harvested at 3, 6, 9, and 14 days and intracellular HCV RNA levels were analyzed by qRT-PCR. The relative copy number of HCV RNA per cell was calculated by comparing RNAs in cells treated with each compound with those RNAs in cells treated with 0.2% DMSO.

[8] = read-out: HCV enzyme (IC50) HCV NS5B RdRp activity, recombinant NS5B, HCV 3′-UTR template

Compound	Combination Index at EC50 [1]	Combination Index at EC75 [1]	Combination Index at EC90 [1]	Effect of combination [1]	EC50 [2]	IC50 [3, 8]	EC50 [4]	IC50 (HCV NS3/4A protease)	CC50 [5]	IC50 [3]	Colony formation of HCV replicons [6]	Reduction of HCV RNA levels ([7]; IFN-α 10 U/mL)	Reduction of HCV RNA levels ([7]; IFN-α 50 U/mL)	Reduction of HCV RNA levels ([7]; IFN-α 100 U/mL)
COC(=O)N[C@H](C(=O)N1CCC[C@H]1c1nc(-c2ccc(-c3ccc(-c4c[nH]c([C@@H]5CCCN5C(=O)[C@@H](NC(=O)OC)C(C)C)n4)cc3)cc2)c[nH]1)C(C)C [BMS790052, Daclatasvir]	0.41	0.42	0.44	Synergistic										
CC1OC(OC2C(OC(=O)C34CCC(C)(C)CC3C3=CCC5C6(C)CC(O)C(OC7OC(CO)C(O)C(OC8OC(CO)C(O)C(O)C8O)C7O)C(CO)(CO)C6CCC5(C)C3(C)CC4O)OC(CO)C2O)C(O)C(O)C1OC1OCC(O)C(O)C1O (stereo not drawn) [Deapioplatycodin D2, deapioplatycodin D2]					8 µg/mL (≈ 6.37 µM)	7.97 µM	0.89 µg/mL (≈ 0.709 µM)	> 79.7 µM	100 µg/mL (≈ 79.7 µM)					
C[C@@H]1O[C@@H](O[C@H]2[C@H](OC(=O)[C@]34CCC(C)(C)C[C@H]3C3=CC[C@@H]5[C@@]6(C)C[C@H](O)[C@H](O[C@@H]7O[C@H](CO)[C@@H](O)[C@H](O[C@@H]8O[C@H](CO)[C@@H](O)[C@H](O)[C@H]8O)[C@H]7O)C(CO)(CO)[C@@H]6CC[C@@]5(C)[C@]3(C)C[C@H]4O)OC[C@H](O)[C@@H]2O)[C@H](O)[C@H](O)[C@H]1O[C@@H]1OC[C@@H](O)[C@H](O[C@@H]2OC[C@](O)(CO)[C@H]2O)[C@H]1O [Platycodin D2, platycodin D2]					12 µg/mL (≈ 8.65 µM)		1.05 µg/mL (≈ 0.757 µM)	> 72.1 µM	25 µg/mL (≈ 18 µM)	4.32 µM				
CC1OC(OC2C(OC(=O)C34CCC(C)(C)CC3C3=CCC5C6(C)CC(O)C(OC7OC(COC8OC(CO)C(O)C(O)C8O)C(O)C(O)C7O)C(CO)(CO)C6CCC5(C)C3(C)CC4O)OC(CO)C2O)C(O)C(O)C1OC1OCC(O)C(OC2OCC(O)(CO)C2O)C1O (stereo not drawn) [Platycodin D3, platycodin D3]					27 µg/mL (≈ 19.5 µM)	5.77 µM	2.33 µg/mL (≈ 1.68 µM)	> 72.1 µM	100 µg/mL (≈ 72.1 µM)					
C[C@@H]1O[C@@H](O[C@H]2[C@H](OC(=O)[C@]34CCC(C)(C)C[C@H]3C3=CC[C@@H]5[C@@]6(C)C[C@H](O)[C@H](O[C@@H]7O[C@H](CO)[C@@H](O)[C@H](O)[C@H]7O)C(CO)(CO)[C@@H]6CC[C@@]5(C)[C@]3(C)C[C@H]4O)OC[C@H](O)[C@@H]2O)[C@H](O)[C@H](O)[C@H]1O[C@@H]1OC[C@@H](O)[C@H](O[C@@H]2OC[C@](O)(CO)[C@H]2O)[C@H]1O [Platycodin D, platycodin D]					3 µg/mL (≈ 2.45 µM)		0.35 µg/mL (≈ 0.286 µM)	> 81.6 µM	25 µg/mL (≈ 20.4 µM)	4.08 µM				
CC(C)(C)OC(=O)N[C@H]1CCCCC/C=C\[C@@H]2C[C@@]2(C(=O)NS(=O)(=O)C2CC2)NC(=O)[C@@H]2C[C@@H](OC(=O)N3Cc4cccc(F)c4C3)CN2C1=O [R7227, Danoprevir]	0.72	0.71	0.70	Synergistic										
IFN-α	0.45	0.39	0.34	Synergistic							unable to inhibit colony formation	0.4 log10	0.8 log10	1.5 log10

Reference: PMC3893781, “Triterpenoid Saponins Isolated from Platycodon grandiflorum Inhibit Hepatitis C Virus Replication” (Evidence-based Complementary and Alternative Medicine : eCAM, 2013)
